Like-named read-outs stand apart in the source and are kept apart here.
Experiments:
Format in all cases: cell-based
Escherichia coli K88 97 [1] = test: Individual tests, microdilution MIC; conditions: for MIC: Escherichia coli
Procedure: (§1) Strains were stored at −80° C. in appropriate media with glycerol, thawed and cultured according to conventional practices.
(§2) The ABs shown in Tables 2 and 3 below, all obtained from Aplha Aesar, were tested. The OAs used are shown in Tables 2 and 3 below, all obtained from Merck. The stock solutions were prepared appropriately and in appropriate way and media for the different strains and could contain 3.5% ethanol to increase solubility.
(§3) The tests were conducted using the microdilution method in a 96-well plate to be microtitered with the medium and culture conditions appropriate for the strains. Bacterial strains (10^5-10^6 CFU/ml) were incubated with the compounds to be tested, while control strains, when necessary, were grown in media containing 3.5% ethanol to exclude an inhibitory effect of any ethanol present in the stock solutions. After incubation, MIC was defined as the lowest concentration resulting in zero absorbance at 630 nm, recorded with Varioskan® LUX Multimode Microplat Reader (Thermo Fisher Scientific). For each test, the percentage of inhibition (%) was calculated with respect to the relative control.
(§4) ABs were tested in the range 64-0.13 ppm, OAs in the range […] and NICs in the range 7.5-0.06 nM.

Streptococcus suis 702 [2] = test: Individual tests, microdilution MIC
Procedure: as §1, §2, §3, §4

Streptococcus suis 701 [3] = test: Individual tests, microdilution MIC
Procedure: as §1, §2, §3, §4

Escherichia Coli K88 95 [4] = test: Individual tests, microdilution MIC; conditions: for MIC: Escherichia coli
Procedure: as §1, §2, §3, §4

Escherichia coli K88 97 [5] = test: Combination test, checkerboard, % inhibition; conditions: E. coli 97
Procedure: as §1, §3
(§5) After phase 1, the strains were tested with associations at sub-effective doses of AB and OA or NIC in a 2×2 checkerboard model. Specifically, two sub-effective doses of AB were associated with two sub-effective doses of OA or NIC (half and one-quarter of MICs) as shown in FIG. 1.
(§6) The % indicate the percentage of inhibition (compounds alone and combinations).
(§7) Tables 4 to 7 show the % of inhibition of the components of the associations alone, at the effective concentrations shown in Tables 2 and 3, and at the sub-effective concentrations (half and one-quarter of MICs), and the % of inhibition of the associations.

Streptococcus suis 702 [6] = test: Combination test, checkerboard, % inhibition; conditions: S. suis 702
Procedure: as §1, §3, §5, §6, §7

Streptococcus suis 701 [7] = test: Combination test, checkerboard, % inhibition; conditions: S. suis 701
Procedure: as §1, §3, §5, §6, §7

Escherichia Coli K88 95 [8] = test: Combination test, checkerboard, % inhibition; conditions: E. coli 95
Procedure: as §1, §3, §5, §6, §7

[9] = K8897, E. coli 97, read-out: MIC values
[10] = Streptococcus suis, S. suis 702, read-out: MIC values
[11] = Streptococcus suis, S. suis 701, read-out: MIC values
[12] = COLIK8895, E. coli 95, read-out: MIC values
[13] = COLIK8895, read-out: MIC values

CC1(C)S[C@@H]2[C@H](NC(=O)[C@H](N)c3ccc(O)cc3)C(=O)N2[C@H]1C(=O)O [Amoxicillin]
MIC (Escherichia coli K88 97 [1]; [9]): > 64 mg/L | MIC (Streptococcus suis 702 [2]; [10]): 0.5 mg/L | MIC (Streptococcus suis 701 [3]; [11]): 0.5 mg/L | MIC (Escherichia Coli K88 95 [4]; [12]): > 64 mg/L

CC1(C)S[C@@H]2[C@H](NC(=O)[C@H](N)c3ccccc3)C(=O)N2[C@H]1C(=O)O [Ampicillin]
MIC (Streptococcus suis 702 [2]; [10]): 0.25 mg/L | MIC (Streptococcus suis 701 [3]; [11]): 0.25 mg/L

O=C(O)c1ccccc1 [Benzoic Acid, benzoic acid]
MIC (Escherichia coli K88 97 [1]; K8897, read-out: MIC values): 50 mM | MIC (Streptococcus suis 702 [2]; Streptococcus suis, 702, read-out: MIC values): 25 mM | MIC (Streptococcus suis 701 [3]; Streptococcus suis, 701, read-out: MIC values): 50 mM | MIC (Escherichia Coli K88 95 [4]; [13]): 50 mM | % inhibition (Escherichia coli K88 97 [5]; BEN 12.5 mM alone): 79% | % inhibition (Escherichia coli K88 97 [5]; BEN 25 mM alone): 97% | % inhibition (Streptococcus suis 702 [6]; BEN 6.25 mM alone): 21% | % inhibition (Streptococcus suis 702 [6]; BEN 12.5 mM alone): 39% | % inhibition (Streptococcus suis 701 [7]; BEN 12.5 mM alone): 22% | % inhibition (Streptococcus suis 701 [7]; BEN 25 mM alone): 51% | % inhibition (Escherichia Coli K88 95 [8]; BEN 12.5 mM alone): 63% | % inhibition (Escherichia Coli K88 95 [8]; BEN 25 mM alone): 90%

CO/N=C(\C(=O)N[C@@H]1C(=O)N2C(C(=O)O)=C(CSC(=O)c3ccco3)CS[C@H]12)c1csc(N)n1 [Ceftiofur]
MIC (Escherichia coli K88 97 [1]; [9]): 2 mg/L | MIC (Streptococcus suis 702 [2]; [10]): 0.5 mg/L | MIC (Streptococcus suis 701 [3]; [11]): 0.5 mg/L | MIC (Escherichia Coli K88 95 [4]; [12]): 1 mg/L

O=C(O)CC(O)(CC(=O)O)C(=O)O [Citric acid, citric acid]
MIC (Escherichia coli K88 97 [1]; [9]): > 100 mM | MIC (Streptococcus suis 702 [2]; [10]): 25 mM | MIC (Streptococcus suis 701 [3]; [11]): 50 mM | MIC (Escherichia Coli K88 95 [4]; [12]): > 100 mM | % inhibition (Streptococcus suis 702 [6]; CIT 6.25 mM alone): 12% | % inhibition (Streptococcus suis 702 [6]; CIT 12.5 mM alone): 43% | % inhibition (Streptococcus suis 701 [7]; CIT 12.5 mM alone): 18% | % inhibition (Streptococcus suis 701 [7]; CIT 25 mM alone): 36%

C[C@H]1c2cccc(O)c2C(=O)C2=C(O)[C@]3(O)C(=O)C(C(N)=O)=C(O)[C@@H](N(C)C)[C@@H]3[C@@H](O)[C@@H]21 [Doxycycline]
MIC (Streptococcus suis 702 [2]; [10]): 0.5 mg/L | MIC (Streptococcus suis 701 [3]; [11]): 16 mg/L

CCN1CCN(c2cc3c(cc2F)c(=O)c(C(=O)O)cn3C2CC2)CC1 [Enrofloxacin]
MIC (Escherichia coli K88 97 [1]; [9]): 2 mg/L | MIC (Streptococcus suis 702 [2]; [10]): 0.5 mg/L | MIC (Streptococcus suis 701 [3]; [11]): 0.5 mg/L | MIC (Escherichia Coli K88 95 [4]; [12]): 2 mg/L

C=CCc1ccc(O)c(OC)c1 [Eugenolo, eugenol]
MIC (Escherichia coli K88 97 [1]; [9]): 3.75 mM | MIC (Streptococcus suis 702 [2]; [10]): 3.75 mM | MIC (Streptococcus suis 701 [3]; [11]): 3.75 mM | MIC (Escherichia Coli K88 95 [4]; [12]): 3.75 mM | % inhibition (Escherichia coli K88 97 [5]; EUG 0.94 mM alone): 26% | % inhibition (Escherichia coli K88 97 [5]; EUG 1.87 mM alone): 34% | % inhibition (Streptococcus suis 702 [6]; EUG 0.94 mM alone): 9% | % inhibition (Streptococcus suis 702 [6]; EUG 1.87 mM alone): 12% | % inhibition (Streptococcus suis 701 [7]; EUG 0.94 mM alone): 6% | % inhibition (Streptococcus suis 701 [7]; EUG 1.87 mM alone): 27% | % inhibition (Escherichia Coli K88 95 [8]; EUG 0.94 mM alone): 31% | % inhibition (Escherichia Coli K88 95 [8]; EUG 1.87 mM alone): 44%

CS(=O)(=O)c1ccc([C@@H](O)[C@@H](CF)NC(=O)C(Cl)Cl)cc1 [Florfenicol]
MIC (Escherichia coli K88 97 [1]; [9]): > 64 mg/L | MIC (Streptococcus suis 702 [2]; [10]): 2 mg/L | MIC (Streptococcus suis 701 [3]; [11]): 2 mg/L | MIC (Escherichia Coli K88 95 [4]; [12]): 16 mg/L

CCCCCC(=O)O [Hexanoic acid, hexanoic acid]
MIC (Escherichia coli K88 97 [1]; K8897, read-out: MIC values): 50 mM | MIC (Escherichia Coli K88 95 [4]; [13]): 50 mM | % inhibition (Escherichia coli K88 97 [5]; HEX 12.5 mM alone): 65% | % inhibition (Escherichia coli K88 97 [5]; HEX 25 mM alone): 83% | % inhibition (Escherichia Coli K88 95 [8]; HEX 12.5 mM alone): 76% | % inhibition (Escherichia Coli K88 95 [8]; HEX 25 mM alone): 83%

C/C=C/C=C/C(=O)O [Sorbic Acid, sorbic acid]
MIC (Escherichia coli K88 97 [1]; [9]): 50 mM | MIC (Streptococcus suis 702 [2]; [10]): 50 mM | MIC (Streptococcus suis 701 [3]; [11]): 100 mM | MIC (Escherichia Coli K88 95 [4]; [12]): 50 mM | % inhibition (Escherichia coli K88 97 [5]; SOR 12.5 mM alone): 79% | % inhibition (Escherichia coli K88 97 [5]; SOR 25 mM alone): 93% | % inhibition (Streptococcus suis 702 [6]; SOR 12.5 mM alone): 26% | % inhibition (Streptococcus suis 702 [6]; SOR 25 mM alone): 38% | % inhibition (Streptococcus suis 701 [7]; SOR 25 mM alone): 30% | % inhibition (Streptococcus suis 701 [7]; SOR 50 mM alone): 56% | % inhibition (Escherichia Coli K88 95 [8]; SOR 12.5 mM alone): 69% | % inhibition (Escherichia Coli K88 95 [8]; SOR 25 mM alone): 85%

Cc1cc(NS(=O)(=O)c2ccc(N)cc2)no1 [Sulfamethoxazole]
MIC (Escherichia coli K88 97 [1]; [9]): > 608 mg/L | MIC (Escherichia Coli K88 95 [4]; [12]): > 608 mg/L

CN(C)[C@@H]1C(O)=C(C(N)=O)C(=O)[C@@]2(O)C(O)=C3C(=O)c4c(O)cccc4[C@@](C)(O)[C@H]3C[C@@H]12 [Tetracycline, tetracycline, reference compound]
MIC (Escherichia coli K88 97 [1]; [9]): > 64 mg/L | MIC (Streptococcus suis 702 [2]; [10]): 2 mg/L | MIC (Streptococcus suis 701 [3]; [11]): 64 mg/L | MIC (Escherichia Coli K88 95 [4]; [12]): > 64 mg/L | % inhibition (Streptococcus suis 702 [6]; TET 0.5 ppm alone): 20% | % inhibition (Streptococcus suis 702 [6]; TET 1 ppm alone): 27% | % inhibition (Streptococcus suis 701 [7]; TET 16 ppm alone): 11% | % inhibition (Streptococcus suis 701 [7]; TET 32 ppm alone): 28%

C=C[C@]1(C)C[C@@H](OC(=O)CSCCN(CC)CC)[C@]2(C)[C@H](C)CC[C@]3(CCC(=O)[C@H]32)[C@@H](C)[C@@H]1O [Tiamulin]
MIC (Streptococcus suis 702 [2]; [10]): 1 mg/L | MIC (Streptococcus suis 701 [3]; [11]): 4 mg/L

COc1cc(Cc2cnc(N)nc2N)cc(OC)c1OC [Trimethoprim]
MIC (Escherichia coli K88 97 [1]; [9]): > 32 mg/L | MIC (Escherichia Coli K88 95 [4]; [12]): > 32 mg/L

CC[C@H]1OC(=O)C[C@@H](O)[C@H](C)[C@@H](O[C@@H]2O[C@H](C)[C@@H](O[C@H]3C[C@@](C)(O)[C@@H](O)[C@H](C)O3)[C@H](N(C)C)[C@H]2O)[C@@H](CC=O)C[C@@H](C)C(=O)/C=C/C(C)=C/[C@@H]1CO[C@@H]1O[C@H](C)[C@@H](O)[C@@H](OC)[C@H]1OC [Tylosin]
MIC (Streptococcus suis 702 [2]; [10]): > 64 mg/L | MIC (Streptococcus suis 701 [3]; [11]): 2 mg/L

Penicillin
MIC values (Streptococcus suis 702 [2]; S. suis 702): 0.13 ppm | MIC values (Streptococcus suis 701 [3]; S. suis 701): 0.13 ppm

colistin [reference compound]
MIC values (Escherichia coli K88 97 [1]; E. coli 97): 32 ppm | MIC values (Escherichia Coli K88 95 [4]; E. coli 95): 32 ppm | % inhibition (Escherichia coli K88 97 [5]; COL 4 ppm alone): 10% | % inhibition (Escherichia coli K88 97 [5]; COL 8 ppm alone): 12% | % inhibition (Escherichia coli K88 97 [5]; COL 16 ppm alone): 29% | % inhibition (Escherichia Coli K88 95 [8]; COL 4 ppm alone): 3% | % inhibition (Escherichia Coli K88 95 [8]; COL 8 ppm alone): 8% | % inhibition (Escherichia Coli K88 95 [8]; COL 16 ppm alone): 40%

neomycin [reference compound]
MIC values (Escherichia coli K88 97 [1]; E. coli 97): >64 ppm | MIC values (Streptococcus suis 702 [2]; S. suis 702): 16 ppm | MIC values (Streptococcus suis 701 [3]; S. suis 701): 8 ppm | MIC values (Escherichia Coli K88 95 [4]; E. coli 95): >64 ppm | % inhibition (Streptococcus suis 702 [6]; NEO 4 ppm alone): 10% | % inhibition (Streptococcus suis 702 [6]; NEO 8 ppm alone): 16% | % inhibition (Streptococcus suis 701 [7]; NEO 2 ppm alone): 6% | % inhibition (Streptococcus suis 701 [7]; NEO 4 ppm alone): 15%
